From patent US9682995B2, “Amino-substituted isothiazoles” (BAYER PHARMA AKTIENGESELLSCHAFT, priority 2013, dated 2017) come the findings set out here.

One assay has as its system HeLa-MaTu-ADR. Description: Proliferation assay (crystal violet), HeLa-MaTu-ADR. Type of assay: cell-based. To be noted: 96 h, 4 days, read-out: Inhibition of proliferation IC50 HeLa-MaTu-ADR. The procedure: (§1) Cultivated tumor cells (cells were ordered from ATCC, except HeLa-MaTu and HeLa-MaTu-ADR, which were ordered from EPO-GmbH, Berlin) were plated at a density of 1000 to 5000 cells/well, depending on the growth rate of the respective cell line, in a 96-well multititer plate in 200 μL of their respective growth medium supplemented 10% fetal calf serum. After 24 hours, the cells of one plate (zero-point plate) were stained with crystal violet (see below), while the medium of the other plates was replaced by fresh culture medium (200 μl), to which the test substances were added in various concentrations (0 μM, as well as in the range of 0.001-10 μM; the final concentration of the solvent dimethyl sulfoxide was 0.5%). The cells were incubated for 4 days in the presence of test substances. Cell proliferation was determined by staining the cells with crystal violet: the cells were fixed by adding 20 μl/measuring point of an 11% glutaric aldehyde solution for 15 minutes at room temperature. After three washing cycles of the fixed cells with water, the plates were dried at room temperature. The cells were stained by adding 100 μl/measuring point of a 0.1% crystal violet solution (pH 3.0). After three washing cycles of the stained cells with water, the plates were dried at room temperature. The dye was dissolved by adding 100 μl/measuring point of a 10% acetic acid solution. Absorption was determined by photometry at a wavelength of 595 nm. The change of cell number, in percent, was calculated by normalization of the measured values to the absorption values of the zero-point plate (=0%) and the absorption of the untreated (0 μm) cells (=100%). The IC50 values were determined by means of a 4 parameter fit.

A further assay concerns NCI-H460. Briefly: Proliferation assay (crystal violet), NCI-H460. To be noted: Homo sapiens, 96 h; NCI-H460, 4 days; read-out: Inhibition of proliferation IC50 NCI-H460. It is filed as cell-based. The procedure:
as §1

The test system of a further assay is DU145. Briefly: Proliferation assay (crystal violet), DU145. To be noted: Homo sapiens, DU-145, 96 h; DU145, 4 days; read-out: Inhibition of proliferation IC50 DU145. It is filed as cell-based. The procedure: as §1
The next assay concerns Caco2. Briefly: Proliferation assay (crystal violet), Caco2. Type of assay: cell-based. To be noted: Homo sapiens, Caco-2, 96 h; Caco2, 4 days; read-out: Inhibition of proliferation IC50 Caco2. The procedure:
as §1

In a further assay the test system is B16F10. Briefly: Proliferation assay (crystal violet), B16F10. To be noted: Mus musculus, B16-F10, 96 h; B16F10, 4 days; read-out: Inhibition of proliferation IC50 B16F10. Type of assay: cell-based. The procedure: as §1
Assay [1] concerns the target 456 kinases (of these 395 non-mutant kinases) (Homo sapiens, UniProt O75116). Description: Kinase Profiling (KINOMEscan). Type of assay: binding. To be noted: ROCK2; 10 μM.
The target of assay [2] is 456 kinases (of these 395 non-mutant kinases) (Homo sapiens, UniProt P00519). Description: Kinase Profiling (KINOMEscan). It is filed as binding. To be noted: 10 μM.
Assay [3] has as its target 456 kinases (of these 395 non-mutant kinases) (Homo sapiens, UniProt P00533, DEL752-759). Description: Kinase Profiling (KINOMEscan). To be noted: EGFR(S752-I759del); 10 μM. Type of assay: binding.
Assay [4] concerns the target 456 kinases (of these 395 non-mutant kinases) (Homo sapiens, UniProt P08581, Y1235D). Briefly: Kinase Profiling (KINOMEscan). To be noted: MET(Y1235D); 10 μM. Type of assay: binding.
The target in assay [5] is 456 kinases (of these 395 non-mutant kinases) (Homo sapiens, UniProt P36888, N841I). Description: Kinase Profiling (KINOMEscan). Type of assay: binding. To be noted: FLT3(N841I); 10 μM.
For assay [6], the target named is 456 kinases (of these 395 non-mutant kinases) (Homo sapiens, UniProt P42336, H1047Y). Briefly: Kinase Profiling (KINOMEscan). It is filed as binding. To be noted: PIK3CA(H1047Y); 10 μM.
Assay [7] deals with 456 kinases (of these 395 non-mutant kinases) (Homo sapiens, UniProt P48736). Briefly: Kinase Profiling (KINOMEscan). To be noted: PIK3CG; 10 μM. It is filed as binding.
Assay [8] deals with 456 kinases (of these 395 non-mutant kinases) (Homo sapiens, UniProt P49336). Description: Kinase Profiling (KINOMEscan). Type of assay: binding. To be noted: CDK8; 10 μM.
Assay [9] concerns the target 456 kinases (of these 395 non-mutant kinases) (Homo sapiens, UniProt P51451). Briefly: Kinase Profiling (KINOMEscan). Type of assay: binding. To be noted: BLK; 10 μM.
For assay [10], the target named is 456 kinases (of these 395 non-mutant kinases) (Homo sapiens, UniProt P78368). Description: Kinase Profiling (KINOMEscan). Type of assay: binding. To be noted: CSNK1G2; 10 μM.
Assay [11] deals with 456 kinases (of these 395 non-mutant kinases) (Homo sapiens, UniProt Q15759). Briefly: Kinase Profiling (KINOMEscan). It is filed as binding. To be noted: p38-beta; 10 μM.
Assay [12] has as its target 456 kinases (of these 395 non-mutant kinases) (Homo sapiens, UniProt Q86UX6). Description: Kinase Profiling (KINOMEscan). It is filed as binding. To be noted: YANK3; 10 μM.
The target of assay [13] is 456 kinases (of these 395 non-mutant kinases) (Homo sapiens, UniProt Q8IVW4). Description: Kinase Profiling (KINOMEscan). Type of assay: binding. To be noted: CDKL3; 10 μM.
Assay [14] has as its target 456 kinases (of these 395 non-mutant kinases) (Homo sapiens, UniProt Q8NFD2). Briefly: Kinase Profiling (KINOMEscan). Type of assay: binding. To be noted: ANKK1; 10 μM.
Assay [15] deals with 456 kinases (of these 395 non-mutant kinases) (Homo sapiens, UniProt Q92918). Briefly: Kinase Profiling (KINOMEscan). Type of assay: binding. To be noted: HPK1; 10 μM.
The target of assay [16] is 456 kinases (of these 395 non-mutant kinases) (Homo sapiens, UniProt Q99755). Description: Kinase Profiling (KINOMEscan). Type of assay: binding. To be noted: PIP5K1A; 10 μM.
The target of assay [17] is 456 kinases (of these 395 non-mutant kinases) (Homo sapiens, UniProt Q9BXA7). Description: Kinase Profiling (KINOMEscan). Type of assay: binding. To be noted: TSSK1B; 10 μM.
The target of assay [18] is 456 kinases (of these 395 non-mutant kinases) (Homo sapiens, UniProt Q9NYY3). Briefly: Kinase Profiling (KINOMEscan). Type of assay: binding. To be noted: PLK2; 10 μM.
Assay [19] has as its target 456 kinases (of these 395 non-mutant kinases) (Homo sapiens, UniProt Q9Y463). Description: Kinase Profiling (KINOMEscan). It is filed as binding. To be noted: DYRK1B; 10 μM.

Chain of 456 kinases (of these 395 non-mutant kinases) (Homo sapiens, UniProt P51451) (P51451 2-505 limits assumed, change not shown): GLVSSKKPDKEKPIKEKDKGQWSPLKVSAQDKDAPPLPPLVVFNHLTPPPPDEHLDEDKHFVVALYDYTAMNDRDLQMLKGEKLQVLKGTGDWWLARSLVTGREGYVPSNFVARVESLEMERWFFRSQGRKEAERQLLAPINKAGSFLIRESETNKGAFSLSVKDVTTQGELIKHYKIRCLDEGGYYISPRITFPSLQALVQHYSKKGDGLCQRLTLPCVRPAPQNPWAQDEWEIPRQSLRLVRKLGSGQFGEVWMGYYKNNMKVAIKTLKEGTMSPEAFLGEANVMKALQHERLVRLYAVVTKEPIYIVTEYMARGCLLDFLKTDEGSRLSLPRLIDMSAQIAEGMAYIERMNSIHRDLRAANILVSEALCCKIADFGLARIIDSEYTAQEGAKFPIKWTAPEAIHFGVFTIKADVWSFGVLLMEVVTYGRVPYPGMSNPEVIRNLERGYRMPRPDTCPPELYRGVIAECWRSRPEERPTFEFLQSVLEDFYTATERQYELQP

Consider `CCc1ccccc1NC(=O)c1c(C)nsc1Nc1cnc2cc(F)ccc2n1` [Example 20, N-(2-Ethylphenyl)-5-[(6-fluoroquinoxalin-2-yl)amino]-3-methyl-1,2-thiazole-4-carboxamide], for which the IC50 in the assay on HeLa-MaTu-ADR is 500 nM; in the assay on NCI-H460, 440 nM; in the assay with DU145, 600 nM; in the assay with Caco2, 550 nM; in the assay with B16F10, 530 nM. Also, the “% Ctrl @ 10 μM” value in assay [1] came out at 100 % Ctrl; in assay [2] (ABL1-nonphosphorylated), 100 % Ctrl; in [2] (ABL1-phosphorylated), 100 % Ctrl; in [3] it was 100 % Ctrl; in assay [4] it was 77 % Ctrl; in assay [5], 84 % Ctrl. Besides, the “% Ctrl @ 10 μM” value in [6] came out at 100 % Ctrl; in [7], 99 % Ctrl; in [8], 100 % Ctrl; in assay [9], 100 % Ctrl; in [10], 95 % Ctrl; in assay [11] it was 100 % Ctrl. Further, the “% Ctrl @ 10 μM” value is 67 % Ctrl in [12]; 66 % Ctrl in assay [13]; 100 % Ctrl in assay [14]; 60 % Ctrl in assay [15]; 100 % Ctrl in [16]; 100 % Ctrl in assay [17]. Besides, the “% Ctrl @ 10 μM” value was determined as 90 % Ctrl in assay [18] and 100 % Ctrl in assay [19].

Take `CCOC(=O)c1cnn2ccc(Nc3snc(C)c3C(=O)Nc3ccc(F)c(F)c3)nc12` [Example 55, Ethyl 5-({4-[(3,4-difluorophenyl)carbamoyl]-3-methyl-1,2-thiazol-5-yl}amino)-pyrazolo[1,5-a]pyrimidine-3-carboxylate]: the IC50 in the assay with HeLa-MaTu-ADR is 140 nM; in the assay on NCI-H460, 300 nM; in the assay on DU145 it was 390 nM; in the assay with Caco2, 150 nM; in the assay with B16F10, 380 nM.

Regarding `Cc1nsc(Nc2cnccn2)c1C(=O)Nc1ccc(Cl)c(F)c1` [Example 56, N-(4-Chloro-3-fluorophenyl)-3-methyl-5-(pyrazin-2-ylamino)-1,2-thiazole-4-carboxamide], the IC50 with HeLa-MaTu-ADR came out at 370 nM; in the assay with NCI-H460, 370 nM; with DU145, 540 nM; in the assay with Caco2, 560 nM; with B16F10, 470 nM.

With `Cc1nsc(Nc2cc(C#N)ccn2)c1C(=O)Nc1ccc(Oc2ccc(F)cc2F)nc1` [Example 114, 5-[(4-Cyanopyridin-2-yl)amino]-N-[6-(2,4-difluorophenoxy)pyridin-3-yl]-3-methyl-1,2-thiazole-4-carboxamide], the IC50 in the assay with HeLa-MaTu-ADR turned out to be 690 nM; in the assay on NCI-H460, 520 nM; with DU145, 1300 nM; with Caco2 it was 980 nM; in the assay with B16F10 it was 1200 nM.
